Test results reported in patent publication US20080293699A1, “Inhibitors of thapsigargin-induced cell death” (priority 2007, published 2008).

Molecular target: T1, ASK1 (Homo sapiens, UniProt Q99683)
T1 construct: expressed in transfected cells; host or cells: HEK293T
T1 sequence (Q99683 1-1374): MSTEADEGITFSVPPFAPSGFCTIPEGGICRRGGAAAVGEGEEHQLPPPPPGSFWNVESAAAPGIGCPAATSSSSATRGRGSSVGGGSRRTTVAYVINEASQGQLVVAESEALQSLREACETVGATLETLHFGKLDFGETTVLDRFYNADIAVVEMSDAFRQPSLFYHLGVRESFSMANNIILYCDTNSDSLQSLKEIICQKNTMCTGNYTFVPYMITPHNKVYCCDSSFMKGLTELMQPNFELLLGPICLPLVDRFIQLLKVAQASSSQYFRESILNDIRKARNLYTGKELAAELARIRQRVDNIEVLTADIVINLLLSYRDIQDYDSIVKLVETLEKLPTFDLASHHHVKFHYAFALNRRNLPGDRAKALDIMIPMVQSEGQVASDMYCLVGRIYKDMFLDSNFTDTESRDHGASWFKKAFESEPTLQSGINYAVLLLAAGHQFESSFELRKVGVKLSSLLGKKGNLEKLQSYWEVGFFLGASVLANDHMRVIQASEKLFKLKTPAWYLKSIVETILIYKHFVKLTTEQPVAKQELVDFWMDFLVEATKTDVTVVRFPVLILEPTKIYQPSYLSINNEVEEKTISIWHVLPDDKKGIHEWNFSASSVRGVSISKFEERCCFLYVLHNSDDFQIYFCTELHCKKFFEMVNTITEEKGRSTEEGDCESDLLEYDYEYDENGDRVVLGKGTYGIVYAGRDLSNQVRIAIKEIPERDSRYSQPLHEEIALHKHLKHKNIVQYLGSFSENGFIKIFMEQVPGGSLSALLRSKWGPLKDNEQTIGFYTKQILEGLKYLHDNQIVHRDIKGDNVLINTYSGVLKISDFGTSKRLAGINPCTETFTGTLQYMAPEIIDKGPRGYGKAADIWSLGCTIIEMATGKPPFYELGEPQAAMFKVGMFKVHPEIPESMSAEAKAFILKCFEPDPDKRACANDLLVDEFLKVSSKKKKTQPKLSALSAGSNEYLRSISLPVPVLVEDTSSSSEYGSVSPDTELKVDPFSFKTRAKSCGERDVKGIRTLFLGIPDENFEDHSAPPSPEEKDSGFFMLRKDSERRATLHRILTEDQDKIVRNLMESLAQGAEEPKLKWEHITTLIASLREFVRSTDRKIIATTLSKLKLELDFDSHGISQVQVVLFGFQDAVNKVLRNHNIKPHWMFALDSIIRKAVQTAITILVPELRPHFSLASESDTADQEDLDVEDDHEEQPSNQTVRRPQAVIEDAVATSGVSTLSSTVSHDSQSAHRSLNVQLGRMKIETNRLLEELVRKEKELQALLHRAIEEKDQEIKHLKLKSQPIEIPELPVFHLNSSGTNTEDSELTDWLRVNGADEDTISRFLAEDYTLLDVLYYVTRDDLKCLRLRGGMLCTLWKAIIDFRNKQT
Experiment: ASK1-MKK6-p38 coupled in vitro kinase assay
Type: biochemical
Method: Suppression of thapsigargin-induced phosphorylation of p38MAPK was also measured by a quantitative ELISA-methods, with IC50 for p38MAPK phosphorylation estimated at <5 μM. In contrast, thapsigargin-induced expression of CHOP, expression of ATF4, proteolytic processing of ATF6, phosphorylation of eIF2a (Ser 51), auto-phosphorylation of Ire1a or auto-phosphorylation of ASK1 were not inhibited directly by CID-2878746 at concentrations up to 50 μM tested by in vitro kinase assay using p32-γ-ATP substrate. […] Thapsigargin-induced reductions in phosphorylation of ASK1 at the serine 967 site in ASK1 transfected 293T cells are inhibited by compound 5962123 at concentrations of 50-100 μM, as determined by immunoblotting using anti-phospho-specific (ser 967) antibody, but thapsigargin-induced changes in phosphorylation of ASK1 at ser 83 and thr 845 are not modulated by compound 5962123 at concentrations as high as 100 μM in ASK1-transfected HEK293T cells.
C-Jun and p38 MAPK work downstream of the Ire1 pathway (see FIG. 21), we tested whether one of our hit compounds (6239507) inhibits autophosphorylation of any of kinases in this Ire1-ASK1-JNK/p38 MAPK pathway. […] An Ire1 autophosphorylation assay was performed. […] Incorporation values of ^32P-γ-ATP were evaluated by a scintillation counter. […] Incorporation values of ^32P-γ-ATP were evaluated by a scintillation counter. […]

Compound	Thapsigargin-induced activation of ASK1 in cells (coupled assay with MKK6 and p38MAPK, ASK1 immunoprecipitated from compound-treated (100 μM) HEK293T cells)	Ask1's activity with respect to downstream kinases MKK6 and p38 MAPK (kinases incubated with 50 μM compound in vitro)
CCN(CC)c1ccc(C2Nc3ccccc3NC3=C2C(=O)CC(c2ccccc2)C3)cc1 (centres unmarked) [Compound 5962123, 6-(4-diethylaminophenyl)-9-phenyl-5,6,8,9,10,11-hexahydrobenzo[c][1,5]benzodiazepin-7-one]	failed to inhibit	
COc1ccc(C2CC(=O)C3=C(C2)Nc2ccccc2NC3c2cccc(Oc3ccccc3)c2)cc1OC (centres unmarked) [Compound 6239507]		does not modulate
